What was measured:
wild-type E. coli = assay: Light microscopy of wild-type E. coli (lysis); type: cell-based; conditions: VanQAmC10 25 μM, vancomycin 34 μM (Fig. 5A)
Protocol: Over 240 minutes, E. coli treated with VanQAmC10 (at 25 μM), gradually grow bulky before finally lysing (ESI Video ^†). It punctured the cell, causing the cytoplasm to leak out as extrusions on the surface of the bacteria after which the cells flattened and disintegrated.
Fig. 5 Examination of E. coli cells treated with vancomycin, cephalexin and VanQAmC10 to study the effect on bacterial membrane integrity and cell division. (A) Light microscopy of wild-type E. coli upon treatment with vancomycin (34 μM), and VanQAmC10 (25 μM); (B) light and fluorescence microscopy in GFP-FtsZ expressing E. coli to assess morphological changes and localization of FtsZ post-treatment with VanQAmC10 (15 μM) for 40 min; (C) delocalization of GFP-FtsI in GFP-FtsI expressing E. coli through fluorescence microscopy and morphological changes through light microscopy upon treatment with vancomycin (34 μM), cephalexin (22 μM) and VanQAmC10 (10 μM); (D) light microscopy to assess morphological changes in E. coli MG1655 ΔamiAC mutant, when untreated and treated with vancomycin (3 μM) and VanQAmC10 (2 μM). Black arrows indicate morphological aberrations.

[1] = test system: GFP-FtsI expressing E. coli; assay: GFP-FtsI localization and morphology; type: cell-based; conditions: for localization of GFP-FtsI: vancomycin 34 μM, VanQAmC10 10 and 15 μM
Protocol: FtsI or PBP-3 is the only transpeptidase required for bacterial cell division and localizes to the septal ring.[37] It regulates the degree of cross-linking and coordinates the division process. GFP-tagged FtsI producing E. coli cells were treated with vancomycin (at 34 μM) and VanQAmC10 (at 10 μM and 15 μM; Fig. 5C) and then examined under the microscope. […] Upon treatment with 10 μM of VanQAmC10, larger phenotypes of variable sizes are observed with shape defects. Some cells appear filamentous like in the case of cephalexin. The GFP-FtsI protein appears as green fluorescent spots delocalized across the cell in 60% of the cells visualized. At a higher concentration of 15 μM, bulkier cells with more distorted shapes than those at 10 μM were observed (Fig. S5 ^†). […]
resuspended in prewarmed BMM media. 1:1 BAC light dye was then added to the bacterial suspension and incubated for 5 minutes. The fluorescence in the GFP and Texas red channels was then observed under the microscope. The experiments were performed three times independently and the images are representative of results from three independent experiments.
B. subtilis 1981 GFP-MinD was cultured overnight in BMM.8 Cells were then inoculated in xylose containing BMM instead of glucose to an OD500 of 0.1 to induce expression of the GFP-MinD fusion protein. Upon reaching an OD500 of 0.35, the cells were treated with test compounds at the PEC (vancomycin, VanQAmC10, VanQbiph) and 0.75 μg/mL (nisin) for 15 min. 0.5 μl of nonfixed, non-immobilized samples of the culture were imaged immediately in fluorescent mode (Olympus microscope with a U-LH100HGAPO burner and a U-RFL-T power supply). The experiments were performed three times independently and the images are representative of results from three independent experiments.
GFP-FtsI and GFP-FtsZ localization in E. coli […]
About 6 μl of sample was immobilized on 1% agarose pad . DIC and fluorescence images were obtained at different time intervals using Nikon Eclipse Ti Microscope equipped with Nikon DS-U3 camera through Plan Apo 100×/1.40 oil objective. […]

[2] = test system: VRSA 1 (vancomycin-resistant S. aureus); design: method as in PMID 32195571; conditions: previously reported; cited from earlier work

SMILES | effect on E. coli cells (microscopy) (wild-type E. coli) | cells with delocalized GFP-FtsI ([1]; 10 μM) | localization of GFP-FtsI [1] | Minimum inhibitory concentration, VRSA 1 [2]
CCCCCCCCCCNC(=O)C[N+](C)(C)CCCNC(=O)C1NC(=O)C2NC(=O)C(NC(=O)C3NC(=O)C(CC(N)=O)NC(=O)C(NC(=O)C(CC(C)C)NC)C(O)c4ccc(c(Cl)c4)Oc4cc3cc(c4OC3OC(CO)C(O)C(O)C3OC3CC(C)(N)C(O)C(C)O3)Oc3ccc(cc3Cl)C2O)c2ccc(O)c(c2)-c2c(O)cc(O)cc21 (stereo not drawn) [VanQAmC10 (8)] | completely lysed the cells | 60% | mislocalizes the cell division protein, FtsI | 3.1 µM
CN[C@H](CC(C)C)C(=O)N[C@H]1C(=O)N[C@@H](CC(N)=O)C(=O)N[C@H]2C(=O)N[C@H]3C(=O)N[C@H](C(=O)N[C@H](C(=O)O)c4cc(O)cc(O)c4-c4cc3ccc4O)[C@H](O)c3ccc(c(Cl)c3)Oc3cc2cc(c3O[C@@H]2O[C@H](CO)[C@@H](O)[C@H](O)[C@H]2O[C@H]2C[C@](C)(N)[C@H](O)[C@H](C)O2)Oc2ccc(cc2Cl)[C@H]1O [Vancomycin, reference compound] | did not affect the cells | – | localization of FtsI at the septum | –

Reference: PMC9977398, “Next-generation membrane-active glycopeptide antibiotics that also inhibit bacterial cell division” (Chemical Science, 2023)
